Columns and labels:
HIV-1LAI = test: Anti-HIV-1 activity in human PBM cells; format: cell-based; conditions: Human immunodeficiency virus 1, PBMC; read-out: EC50 against human immunodeficiency virus type 1
Procedure: Anti-HIV-1 activity of the compounds was determined in human peripheral blood mononuclear (PBM) cells as described previously (Schinazi R. F., McMillan A., Cannon D., Mathis R., Lloyd R. M. Jr., Peck A., Sommadossi J.-P., St. Clair M., Wilson J., Furman P. A., Painter G., Choi W.-B., Liotta D. C. Antimicrob. Agents Chemother. 1992, 36, 2423; Schinazi, R. F., Sommadossi J.-P., Saalmann V., Cannon D., Xie M.-Y., Hart G., Smith G., Hahn E. Antimicrob. Agents Chemother. 1990, 34, 1061). Stock solutions (20-40 mM) of the compounds were prepared in sterile DMSO and then diluted to the desired concentration in growth medium. Cells were infected with the prototype HIV-1LAI at a multiplicity of infection of 0.01. Virus obtained from the cell supernatant was quantified on day 6 after infection by a reverse transcriptase assay using (rA)n.(dT)12-18 as template-primer. The DMSO present in the diluted solution (<0.1%) had no effect on the virus yield. AZT was included as positive control. The toxicity of some compounds was assessed in Vero, human PBM, and CEM cells, as described previously (Schinazi R. F., Sommadossi J.-P., Saalmann V., Cannon D. L., Xie M.-Y., Hart G. C., Smith G. A., Hahn E. F. Antimicrob Agents Chemother. 1990, 34, 1061-1067). Cycloheximide was included as positive cytotoxic control, and untreated cells exposed to solvent were included as negative controls. […]

EBV-TK = target: T1, EBV-TK (Epstein-Barr virus, UniProt P03177); test: Selectivity for EBV-TK: thymidine phosphorylation competition and cytotoxicity assays on EBV-TK-expressing cells; format: cell-based; conditions: EBV-TK versus human cellular thymidine kinase
T1 construct: expressed in transfected cells; host or cells: 143B TK- human osteosarcoma cells and 293 human embryonic kidney cells, stably transfected with pCMV EBV-TK
T1 sequence (P03177 whole entry): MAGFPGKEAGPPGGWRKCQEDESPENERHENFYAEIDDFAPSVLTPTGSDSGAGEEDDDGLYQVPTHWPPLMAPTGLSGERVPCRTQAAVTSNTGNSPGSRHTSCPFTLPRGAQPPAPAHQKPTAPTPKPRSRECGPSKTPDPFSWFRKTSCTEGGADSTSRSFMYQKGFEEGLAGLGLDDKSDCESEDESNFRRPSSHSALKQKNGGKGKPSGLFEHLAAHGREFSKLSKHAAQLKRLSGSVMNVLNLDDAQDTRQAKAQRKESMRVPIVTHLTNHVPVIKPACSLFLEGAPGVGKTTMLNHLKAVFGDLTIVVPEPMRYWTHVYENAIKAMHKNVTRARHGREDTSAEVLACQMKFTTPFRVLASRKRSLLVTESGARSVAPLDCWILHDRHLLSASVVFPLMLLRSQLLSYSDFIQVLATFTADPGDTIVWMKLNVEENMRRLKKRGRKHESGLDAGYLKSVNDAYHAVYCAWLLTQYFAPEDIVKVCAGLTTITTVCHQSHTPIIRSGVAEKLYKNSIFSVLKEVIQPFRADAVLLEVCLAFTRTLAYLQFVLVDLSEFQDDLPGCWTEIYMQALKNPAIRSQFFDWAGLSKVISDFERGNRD
Procedure: J. Virol. 74, 684-692). EBV-TK was incubated in an optimized buffer with 15 μM 3H-dT as substrate in a final volume of 100 μL. The enzyme source was either lysate from 143B EBV-TK-expressing cells or purified GST EBV-TK from E. coli. The amount of enzyme was adjusted so that the reaction proceeded linearly for over 60 min. A 10-fold excess (150 μM) of the nucleoside analog being tested was included in the experiment. The reaction was halted at 30 min. by spotting 50 μL of the reaction onto positively charged DE-81 discs (Whatman). After washing four times with 5 mM ammonium formate and once with 95% ethanol, the discs were dried and counted in a scintillation counter. The CPM of the positive control reaction containing no nucleoside analog was taken as 100% activity.
This assay measures the ability of a candidate nucleoside to specifically eliminate EBV-infected cells in the continuous presence of drug. 143B TK-cells lack TK-1. 293 cells contain human TK-1. Therefore, these assays comparatively assess the effects of human TK expression on toxicity. Stock solutions (20-40 mM) of the compounds were prepared in sterile DMSO and then diluted to the desired concentration in growth medium. The cells (143B TK-, 293 EBV-TK or 293 Neo control cells) were cultured in the presence of drug for 5 days, and the media was replaced with fresh media containing drug on day three. Cells were then washed one time with PBS, fixed with 4% formaldehyde/1% methanol and stained with 1% crystal violet in 20% ethanol for visualization of the cell monolayer. […] Cultures with this designation often have media that is still “pink,” indicating a slowdown of cellular metabolism. Identical samples are assessed in triplicate.
Stock solutions (20-40 mM) of the compounds were prepared in sterile DMSO and then diluted to the desired concentration in growth medium. Exponentially growing cells were incubated with the nucleoside in question for 24 h, plated in 24-well plates at 50 viable cells per well and incubated for 7-9 days in the absence of drug. Cells were fixed and stained as above and colonies were counted. A nucleoside can cause a decrease in the number of colonies, which is an indirect indication of the number of cells able to survive and to replicate after the initial exposure to drug.
Two cell systems are employed to determine the toxicity of each nucleoside. The information obtained depends upon the system used. In 143B TK-cells, cytotoxic drugs that are dependent upon phosphorylation by a TK are easily identified. 143B TK-cells expressing either EBV-TK or hTK1 permit assessment of whether either enzyme independently may cause a drug to become cytotoxic. Thus, drugs that can be activated by hTK1, which would cause non-specific cytotoxicity, are readily identified. One drawback is that these cells are grown in HAT media that “forces” nucleosides through the TK salvage pathway (EBV-TK or hTK1). A false positive may arise if a nucleoside out-competes dT for phosphorylation such that sufficient amounts of dT are not available for cellular replication. This toxicity may not be present or may be reduced in a cell that has the synthetic as well as salvage pathways available for dTTP production. For this reason, the 293 system was developed. These cells have endogenous hTK1 and EBV-TK is maintained by selection in G418. Thus, the normal hTK1 salvage pathway is operational, and nucleosides can be expected to flux through the cells normally. Drugs are incubated with 293 cells transformed with a neomycin (Neo) expressing plasmid (Neo control) and with cells transfected with the same plasmid also expressing EBV-TK. A nucleoside selectively activated by EBV-TK should cause toxicity on 293 EBV-TK and not on 293 Neo control cells. In both the 143B and 293 cell systems, toxicity is evaluated by cell survival. The cells are cultured in the presence of drug for 5 days, and the media replaced with fresh media containing drug on day 3. […]

| Compound | EC50 (HIV-1LAI) [nM] | selectivity for EBV-TK (specifically phosphorylated and converted into a cytotoxic agent by EBV-TK) (EBV-TK) |
| --- | --- | --- |
| C#Cc1cn([C@H]2CC(O)[C@@H](CO)O2)c(=O)[nH]c1=O (stereo partly drawn) [5-ethynyl-dU, β-D-2′-deoxy-5-ethynyluridine] | 610 |  |
| O=c1[nH]c(=O)n([C@@H]2CO[C@H](CO)O2)cc1-c1ccco1 [(2S,4S)-5-(2-furanyl)-1-[2-(hydroxymethyl)-1,3-dioxolan-4-yl]uracil] |  | selectivity for EBV-TK |
| O=C(O)/C=C/c1cn([C@H]2CC(O)[C@@H](CO)O2)c(=O)[nH]c1=O (stereo partly drawn) [β-D-5-E-(2-carboxyvinyl)-2′-deoxyuridine] |  | selectivity for EBV-TK |
| C=Cc1cn([C@@H]2CC(O)[C@H](CO)O2)c(=O)[nH]c1=O (stereo partly drawn) [β-L-2′-deoxy-5-vinyluridine] |  | selectivity for EBV-TK |
| C=Cc1cn([C@H]2CC(O)[C@@H](CO)O2)c(=O)[nH]c1=O (stereo partly drawn) [5-vinyl-dU, β-D-2′-deoxy-5-vinyluridine] |  | selectivity for EBV-TK |
| CCCCc1cn([C@H]2CC(O)[C@@H](CO)O2)c(=O)[nH]c1=O (stereo partly drawn) [β-D-5-butyl-2′-deoxyuridine] |  | selectivity for EBV-TK |
| C=Cc1cn([C@H]2O[C@@H](CO)C(O)C2O)c(=O)[nH]c1=O (stereo partly drawn) [β-L-5-vinyluridine] |  | selectivity for EBV-TK |
| O=c1[nH]c(=O)n([C@@H]2CO[C@H](CO)O2)cc1-c1cccs1 [(2S,4S)-5-(2-thienyl)-1-[2-(hydroxymethyl)-1,3-dioxolan-4-yl]uracil] |  | selectivity for EBV-TK |
| O=c1[nH]c(=O)n([C@@H]2CO[C@H](CO)O2)cc1-c1ccc(Br)o1 [(2S,4S)-5-(5-bromo-2-furanyl)-1-[2-(hydroxymethyl)-1,3-dioxolan-4-yl]uracil] |  | selectivity for EBV-TK |
| O=c1[nH]c(=O)n([C@@H]2CO[C@H](CO)O2)cc1-c1ccc(Br)s1 [(2S,4S)-5-(5-bromthien-2-yl)-1-[2-(hydroxymethyl)-1,3-dioxolan-4-yl]uracil] |  | selectivity for EBV-TK |
| O=c1[nH]c(=O)n([C@@H]2CC(O)[C@H](CO)O2)cc1I (stereo partly drawn) [β-L-2′-deoxy-5-iodouridine] |  | selectivity for EBV-TK |
| O=c1[nH]c(=O)n([C@H]2CC(O)[C@@H](CO)O2)cc1CO (stereo partly drawn) [β-D-2′-deoxy-5-(hydroxymethyl)uridine] |  | selectivity for EBV-TK |
| O=c1[nH]c(=O)n([C@@H]2CO[C@H](CO)O2)cc1/C=C/CO [(2S,4S)-5-(3-hydroxypropenyl)-1-[2-(hydroxymethyl)-1,3-dioxolan-4-yl]uracil] |  | selectivity for EBV-TK |
